One assay concerns cultured human mast cells (CHMC). Nature of the assay: CHMC high cell density IgE activation: histamine.
Conditions: not given
It is filed as cell-based. The protocol:
(§1) After sensitizing, cells are counted, pelleted (1000 rpm, 5-10 minutes), and resuspended at 1-2 ×10^6 cells/ml in MT buffer. Add 100 ul of cell suspension to each well and 100 ul of compound dilutions. The final vehicle concentration is 0.5% DMSO. Incubate at 37° C. (5% CO2) for 1 hour. After 1 hour of compound treatment, stimulate cells with 6× anti-IgE. Mix wells with the cells and allow plates to incubate at 37° C. (5% CO2) for one hour. After 1 hour incubation, pellet cells (10 minutes, 1000 RPM) and collect 200 ul per well of the supernatant, being careful not to disturb pellet. Place the supernatant plate on ice. During the 7-hour step (see next) perform tryptase assay on supernatant that had been diluted 1:500. Resuspend cell pellet in 240 ul of CM media containing 0.5% DMSO and corresponding concentration of compound. Incubate CHMC cells for 7 hours at 37° C. (5% CO2). After incubation, pellet cells (1000 RPM, 10 minutes) and collect 225 ul per well and place in −80° C. until ready to perform ELISAS. ELISAS are performed on appropriately diluted samples (determined empirically for each donor cell population so that the sample measurement falls within the standard curve) following the supplier's instructions.
The molecule `Cc1cc(Nc2ncc(F)c(Nc3cc(C)c(O)c(Cl)c3)n2)cc(Cl)c1O` [Compound R940216] registered an IC50 of 1.18 µM.
Still for that read-out and setting: to `OCc1cc2cc(Nc3ncc(F)c(Nc4cccc(O)c4)n3)ccc2[nH]1` [Compound R926700] belongs < 1.1 µM; to `Nc1cc(Cl)cc(Nc2ncc(F)c(Nc3cc(N)cc(Cl)c3)n2)c1` [Compound R950141], 0.627 µM.

System in another assay: not listed separately
Nature of the assay: Sheep model of allergic asthma. It is filed as in vivo. As to conditions: dose, pretreatment and vehicle per compound as in TABLE 5. The protocol:
In the sheep model of allergic asthma, sheep are administered aerosols of test article via an endotracheal tube, followed by an aerosol challenge with antigen extracted from the roundworm, Ascaris suum, to which the sheep are naturally allergic. Allergen challenge leads to direct bronchoconstriction (both EAR and LAR) and a persistent non-specific AHR. These three characteristics are similar to those seen in human allergic asthmatics. The activity of the test agent is determined by changes in the lung resistance (RL), which is calculated from measurements of transpulmonary pressure, flow, and respiratory volume. […] The LAR is a less pronounced increase in RL, which starts approximately 5-6 hours following allergen challenge and is resolved by 8 hours post-challenge. Twenty-four hours after the challenge, a dose response to carbachol is measured to determine the AHR, which is expressed as the dose of carbachol required to increase RL by 400% over baseline. (This measurement is referred to as the provocative concentration of carbachol that elicits a 400% increase in RL over baseline (PC400). The data are compared to historical control data for the same individual when administered a saline control aerosol and challenged with Ascaris suum.
Turning to `CNC(=O)COc1cccc(Nc2ncc(F)c(Nc3ccc4c(c3)OCCO4)n2)c1` [Compound R926495], the EAR result is recorded as “greatly reduced”; the “LAR and AHR” value was “blocked”.

For a further assay, the system named is cultured human mast cells (CHMC). Nature of the assay: CHMC high cell density IgE activation: TNFalpha. It is filed as cell-based. The note with it: read-out: CHMC high density TNF-alpha. The protocol: as §1
For the molecule `Cc1cc(Nc2ncc(F)c(Nc3cc(C)c(O)c(Cl)c3)n2)cc(Cl)c1O` [Compound R940216], the IC50 was found to be 3.19 µM.
Consider `OCc1cc2cc(Nc3ncc(F)c(Nc4cccc(O)c4)n3)ccc2[nH]1` [Compound R926700], for which the IC50 was < 1.1 µM.
Take `Nc1cc(Cl)cc(Nc2ncc(F)c(Nc3cc(N)cc(Cl)c3)n2)c1` [Compound R950141]: the IC50 came out at 1.06 µM.

The test system of the next assay is basophil cells (human peripheral blood). Put plainly: Basophil ionomycin activation: histamine release assay. It is filed as cell-based. As to conditions: basophils, ionomycin activation, histamine release; read-out: Basophils Ionomycin Histamine IC50. Here is the method: The basophil activation assay was carried out using whole human peripheral blood from donors allergic to dust mites with the majority of the red blood cells removed by dextran sedimentation. Human peripheral blood was mixed 1:1 with 3% dextran T500 and RBCs were allowed to settle for 20-25min. The upper fraction was diluted with 3 volumes of D-PBS and cells were spun down for 10 min at 1500 rpm, RT. Supernatant was aspirated and cells were washed in an equal volume MT-buffer. Finally, cells were resuspended in MT-buffer containing 0.5% DMSO in the original blood volume. 80 uL cells were mixed with 20 uL compound in the presence of 0.5% DMSO, in triplicate, in a V-bottom 96-well tissue culture plate. A dose range of 8 compound concentrations was tested resulting in a 10-point dose response curve including maximum (stimulated) and minimum (unstimulated) response. […] The cells were stimulated for 30 minutes at 37° C., 5% CO2. The plate was spun for 10 min at 1500 rpm at room temperature and 80 uL the supernatant was harvested for histamine content analysis using the histamine ELISA kit supplied by Immunotech. The ELISA was performed according to supplier's instructions.
Assays for ionomycin-induced basophil cell degranulation were carried out as described for the Basophil IgE or Dustmite Activation Assay (Section 7.5.5, supra), with the exception that following incubation with compound, cells were stimulated with 20 μl of 2 μM ionomycin.
Turning to `CNC(=O)COc1cccc(Nc2ncc(F)c(Nc3ccc4c(c3)OCCO4)n2)c1` [Compound R926495], the IC50 was > 10 µM.

The test system of another assay is cultured human mast cells (CHMC). Put plainly: CHMC high cell density IgE activation: tryptase.
Conditions: not given
It is filed as cell-based. Here is the method:
as §1
Take `Cc1cc(Nc2ncc(F)c(Nc3cc(C)c(O)c(Cl)c3)n2)cc(Cl)c1O` [Compound R940216]: the IC50 is < 1.1 µM.
The same measure, in the same setting: to `OCc1cc2cc(Nc3ncc(F)c(Nc4cccc(O)c4)n3)ccc2[nH]1` [Compound R926700] belongs < 1.1 µM; to `Nc1cc(Cl)cc(Nc2ncc(F)c(Nc3cc(N)cc(Cl)c3)n2)c1` [Compound R950141], 0.618 µM.

For the next assay, the system named is Human Jurkat T-cells (clone N). Put plainly: Jurkat T-cell activation (anti-TCR, CD69 upregulation). The assay is classed as cell-based.
Conditions: not given
The gist of the method:
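Jurkat cells in RPMI + 5% FBS preincubated with compound 1 h at 37 °C, then stimulated with anti-TCR C305 at 500 ng/ml for 20 h. CD69 surface expression stained with anti-CD69-APC and read by flow cytometry; IC50 versus solvent-only control.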
`Cc1cc(Nc2ncc(F)c(Nc3cc(C)c(O)c(Cl)c3)n2)cc(Cl)c1O` [Compound R940216] showed an IC50 of 1.28 µM.
Consider `OCc1cc2cc(Nc3ncc(F)c(Nc4cccc(O)c4)n3)ccc2[nH]1` [Compound R926700], for which the IC50 came out at 0.51 µM.
Consider `Nc1cc(Cl)cc(Nc2ncc(F)c(Nc3cc(N)cc(Cl)c3)n2)c1` [Compound R950141], for which the IC50 is 2.38 µM.
`CNC(=O)COc1cccc(Nc2ncc(F)c(Nc3ccc4c(c3)OCCO4)n2)c1` [Compound R926495] came in with an IC50 of 11.9 µM.

The subject of a further assay is cultured human mast cells (CHMC). Put plainly: CHMC high cell density IgE activation: hexos. It is filed as cell-based.
Conditions: not given
The protocol: as §1
Add 50 uL of BMMC cell supernatant (see above) to the hexoseaminidase substrate, place at 37° C. for 30 minutes and read the plate at 5, 10, 15, and 30 minutes on a spectrophotometer.
Regarding `Cc1cc(Nc2ncc(F)c(Nc3cc(C)c(O)c(Cl)c3)n2)cc(Cl)c1O` [Compound R940216], the IC50 was < 1.1 µM.
Same read-out and setting: the result for `OCc1cc2cc(Nc3ncc(F)c(Nc4cccc(O)c4)n3)ccc2[nH]1` [Compound R926700] reads < 1.1 µM.
Still for that read-out and setting: the result for `Nc1cc(Cl)cc(Nc2ncc(F)c(Nc3cc(N)cc(Cl)c3)n2)c1` [Compound R950141] reads 0.567 µM.

Another assay has the same test system. Nature of the assay: CHMC high cell density IgE activation: IL-13. It is filed as cell-based.
Conditions: not given
Here is the method: as §1
As for `Cc1cc(Nc2ncc(F)c(Nc3cc(C)c(O)c(Cl)c3)n2)cc(Cl)c1O` [Compound R940216], the IC50 is 3.01 µM.
On the same count and under the same terms, the result for `OCc1cc2cc(Nc3ncc(F)c(Nc4cccc(O)c4)n3)ccc2[nH]1` [Compound R926700] reads 2.05 µM.
`Nc1cc(Cl)cc(Nc2ncc(F)c(Nc3cc(N)cc(Cl)c3)n2)c1` [Compound R950141] registered an IC50 of 0.798 µM.

The test system is the same in another assay. Nature of the assay: CHMC high cell density IgE activation: LTC4.
Conditions: not given
It is filed as cell-based. Here is the method:
as §1
As to `Cc1cc(Nc2ncc(F)c(Nc3cc(C)c(O)c(Cl)c3)n2)cc(Cl)c1O` [Compound R940216], the IC50 is < 1.1 µM.
As to `OCc1cc2cc(Nc3ncc(F)c(Nc4cccc(O)c4)n3)ccc2[nH]1` [Compound R926700], the IC50 is < 1.1 µM.
Same read-out and setting: the result for `Nc1cc(Cl)cc(Nc2ncc(F)c(Nc3cc(N)cc(Cl)c3)n2)c1` [Compound R950141] reads 0.201 µM.

A further assay concerns Primary T-cells. Put plainly: Primary T-cell cytokine production (αCD3/αCD28): IL-2. It is filed as cell-based, human. As to conditions: read-out: 1° T-Cell IL2 IC50. The protocol:
2E8-4E8 PBMC or proliferating T cells grown in rIL-2 from healthy human donors were suspended in PBS were spun down (1500 rpm, 8-10 minutes) and resuspended in 100 ml RPMI Complete media (1% Pen-Strep, 1% L-Glutamine, 10 mM HEPES). The cells were plated in T175 flasks (37° C., 5% CO2) and monocytes were allowed to adhere for 2-3 hours. After monocyte attachment, non-adherent cells were harvested, counted by hemocytometer, washed several times with PBS then resuspended in Yssels Complete Media (Modified IMDM Media with 1% Human AB Serum, 1% Pen-Strep, 1% L-Glutamine, 10 mM HEPES) at […]. 90 uL of the cell dilution were then added to compounds diluted to 2× in Yssel's media and incubated for 30 minutes at 37° C. (5% CO2). After this preincubation step the compound/cell mixture was transferred to stimulation plates, as described below.
Stimulation plates were prepared by coating 96 well plates with 5 μg/ml αCD3 (BD PharMingen, Catalog #555336)+10 μg/ml αCD28 (Beckman Coulter, Catalog #IM1376) in PBS (no Ca^2+/Mg^2+) at 37° C. (5% CO2) for at 3-5 hours. After incubation with the stimulation antibodies, the cocktail was removed and the plates washed 3 times with PBS prior to addition of the primary T cell/compound mixture.
The compound/cell mixture was transferred to the stimulation plates and incubated for 18 hr at 37° C. (5% CO2). After the cell stimulation, ˜150 μl supernatant were transferred from each well into 96-well filter plates (Coming PVDF Filter Plates) spun down (2000 rpm, 2-3 minutes) and either used immediately for ELISA or LUMINEX measurements or frozen down at −80° C. for future use.
IL-2 ELISAs were performed using the Quantikine Human IL-2 ELISA kit (R&D Systems, Catalog # D2050) as described by the manufacturer and absorption was measured on a spectrophotometer at 450 nm wavelength. Blank values were substracted and absorbances were converted to pg/mL based on the standard curve.
Luminex immunoassay multiplexing for TNF, IL-2, GMSCF, IL-4 and IFNg was performed essentially as described by the manufacturer (Upstate Biotechnology). Essentially 50 uL of sample was diluted into 50 uL assay diluent and 50 uL incubation buffer, then incubated with 100 uL of the diluted detection antibody for 1 hr at RT in the dark. The filter plate was washed 2× in Wash Buffer, then incubated with 100 uL of the diluted secondary reagent (SAV-RPE) for 30 min at RT in the dark. Finally the plates were washed 3 times and bead identification and RPE fluorescent measured by the Luminex instrument.
Varied concentrations of compound were compared to solvent only to determine the inhibition of T-cell activation IC50 of each compound.
Regarding `CNC(=O)COc1cccc(Nc2ncc(F)c(Nc3ccc4c(c3)OCCO4)n2)c1` [Compound R926495], the IC50 is 0.643 µM.

A further assay deals with cultured human mast cells (CHMC). Put plainly: CHMC low cell density ionomycin activation: tryptase assay. The assay is classed as cell-based. As to conditions: Low Density CHMC, ionomycin activation, tryptase release; read-out: CHMC Ionomycin Tryptase IC50.
Consider `OCc1cc2cc(Nc3ncc(F)c(Nc4cccc(O)c4)n3)ccc2[nH]1` [Compound R926700], for which the IC50 is > 10 µM.

The same assay, now with this note: Low Density; read-out: CHMC Ionomycin Tryptase.
For the molecule `Cc1cc(Nc2ncc(F)c(Nc3cc(C)c(O)c(Cl)c3)n2)cc(Cl)c1O` [Compound R940216], the IC50 is 7.3 µM.
Still for that read-out and setting: to `Nc1cc(Cl)cc(Nc2ncc(F)c(Nc3cc(N)cc(Cl)c3)n2)c1` [Compound R950141] belongs > 10 µM.

For another assay the test system is unchanged. Put plainly: CHMC low cell density IgE activation: tryptase assay. It is filed as cell-based. As to conditions: Low Density; read-out: CHMC anti-IgE Tryptase. The gist of the method: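 Cultured human mast cells (1000-1500 cells/well, donor-dependent) equilibrated 1 hr at 37° C, then stimulated with anti-IgE for 30 min at 37° C. Tryptase released into the supernatant is measured with a fluorogenic tryptase substrate after 30 min at room temperature.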
As for `Cc1cc(Nc2ncc(F)c(Nc3cc(C)c(O)c(Cl)c3)n2)cc(Cl)c1O` [Compound R940216], the IC50 amounted to 0.268 µM.
Same read-out and setting: the result for `Nc1cc(Cl)cc(Nc2ncc(F)c(Nc3cc(N)cc(Cl)c3)n2)c1` [Compound R950141] reads 0.31 µM.

Values taken from patent US8158621B2, “Methods of treating or preventing autoimmune diseases with 2,4-pyrimidinediamine compounds” (Rigel Pharmaceuticals, Inc., priority 2002, dated 2012).
